Reference: patent publication US20170239323A1, “ORITAVANCIN FORMULATIONS” (The Medicines Company, priority 2016, published 2017)
Like-named read-outs stand apart in the source and are kept apart here.

Key:
[1] = Reconstitution of Orbactiv 400 mg vial with aqueous HPCD: time to dissolve, pH and visual observation on storage; format: physicochemical; conditions: for visible precipitation: over 24 hours; for time to go into solution (clear, colorless solution): 57.14 mg/mL; for pH: oritavancin 50 mg/mL
Description: Reconstituting Orbactiv 400 mg (Oritavancin) with 50% HPCD. 5.915 g of HPCD was dissolved in 11.83 mL of water to make a 50 wt % aqueous solution. 8 mL of the 50% HPCD solution was added to a 400 mg vial of Orbactiv for a target oritavancin concentration of 50 mg/mL. […] The pH was measured and the solution was stored at room temperature, protected from light, and observed over 24 hours for signs of precipitation (Table 1).
Reconstituting Orbactiv 400 mg (Oritavancin) in 20% w/v HPCD aqueous solution. 3.095 g HPCD was dissolved in 15.474 mL water to make a 20% w/v solution (pH=6.05). 8 mL of the 20% w/v HPCD solution was added to a 400 mg vial of Orbactiv for a target oritavancin concentration of 50 mg/mL. […] The pH was measured and the solution was stored at room temperature, protected from light, and observed over 24 hours for signs of precipitation (Table 3).
Reconstituting Orbactiv 400 mg (Oritavancin) in 50% w/v HPCD aqueous solution, adjusting pH then diluting in saline. 6.269 g of HPCD was dissolved in 12.538 mL of water to make a 50% w/v solution (pH=7.23). Seven (7) mL of the 50% w/v solution was added to a 400 mg vial of Orbactiv for a target oritavancin concentration of 57.14 mg/mL. […] A 2 mL aliquot of 57.14 mg/mL was removed from the vial and placed in a small glass vial. The pH was adjusted to 6.5 using 1N NaOH. NaOH was added to the oritavancin solution in 5 μL increments and vortexed. Visual observations and pH were recorded (Table 6).
(§1) Reconstituting Orbactiv 400 mg (Oritavancin) in 50% w/v aqueous HPCD, adjusting pH then diluting in saline. 6.112 g of HPCD was dissolved in 12.224 mL of water to make a 50% w/v solution (pH=6.74). Seven (7) mL of the 50% w/v HPCD solution was added to a 400 mg vial of Orbactiv for a target oritavancin concentration of 57.14 mg/mL. […] A 3 mL aliquot of 57.14 mg/mL was removed from the vial and placed in a small glass vial. The pH was adjusted to 7 using 1N NaOH. NaOH was added to the oritavancin solution in 5 μL increments and vortexed. Visual observations and pH were recorded (Table 8).
as §1, with “20%” for “50%”, “3.555” for “6.112”, “17.775” for “12.224”, “(pH=6.88).” for “(pH=6.74).”, “recorded.” for “recorded”, “10).” for “8).”
Reconstituting Orbactiv 400 mg (Oritavancin) in 20% w/v aqueous HPCD then diluting in Hank's Balanced Salt Solution (HBSS). 2.641 g of HPCD was dissolved in 13.205 mL of water to make a 20% w/v solution (pH=6.70). Eight (8) mL of the 20% w/v solution was added to a 400 mg vial of Orbactiv for a target oritavancin concentration of 50 mg/mL. […] A 1.5 mL aliquot of 50 mg/mL was removed from the vial and placed in a small glass vial and pH measured. Diluted 2 mL of 50 mg/mL oritavancin solution in 8 mL of HBSS. Visual observations and pH were recorded. (Table 12).

[2] = Pharmacokinetics in ABSSSI patients after single 1200 mg IV oritavancin (ORBACTIV) in 1000 mL D5W; format: in vivo, human; conditions: plasma; for AUC(0-t) / half-life: iv, 1200 mg
Description: Oritavancin (as ORBACTIV®) was evaluated in double-blind, controlled ABSSSI clinical trials, which included 976 adult patients treated with a single 1200 mg intravenous dose of oritavancin in 1000 mL D5W. The formulation was prepared by adding 40 mL of sterile water for injection (WFI) to each of three 400 mg vials of ORBACTIV® to provide a 10 mg/mL solution per vial. Each vial was gently swirled to avoid foaming and ensure that all ORBACTIV powder was completely reconstituted in solution. […] The three solutions were combined and diluted to 1000 mL total volume with 5% dextrose in sterile water (D5W), to give a 1.2 mg/mL solution of oritavancin. The formulation was administered to each subject intravenously over 3 hours, and PK was measured (Table 20). The median age of patients treated with oritavancin was 45.6 years, ranging between 18 and 89 years of age with 8.8%≧65 years of age. Patients treated with oritavancin were predominantly male (65.4%), 64.4% were Caucasian, 5.8% were African American, and 28.1% were Asian. Safety was evaluated for up to 60 days after dosing.

[3] = mean, ABSSSI subjects, single 1200 mg IV dose over 3 hours (n = 297)

For CN[C@H](CC(C)C)C(=O)N[C@H]1C(=O)N[C@@H](CC(N)=O)C(=O)N[C@H]2C(=O)N[C@H]3C(=O)N[C@H](C(=O)N[C@H](C(=O)O)c4cc(O)cc(O)c4-c4cc3ccc4O)[C@H](O[C@H]3C[C@](C)(N)[C@@H](O)[C@H](C)O3)c3ccc(c(Cl)c3)Oc3cc2cc(c3O[C@@H]2O[C@H](CO)[C@@H](O)[C@H](O)[C@H]2O[C@H]2C[C@](C)(NCc3ccc(-c4ccc(Cl)cc4)cc3)[C@@H](O)[C@H](C)O2)Oc2ccc(cc2Cl)[C@H]1O [Oritavancin], the visible precipitation ([1]; 50 mg/mL in 20% w/v HPCD solution) was “did not show any sign of visible precipitation”, the visible precipitation ([1]; 50 mg/mL in 50% HPCD aqueous solution) was “did not show any sign of visible precipitation” and the “time to go into solution (clear, colorless solution)” value (from here on “time to go into solution”) ([1]; 400 mg vial + 7 mL 20% w/v HPCD solution) was no more than 5 min. The “time to go into solution” value ([1]; 400 mg vial + 7 mL 20% w/v HPCD solution, listed as Orbactiv) was 5 min, the “time to go into solution” value ([1]; 400 mg vial + 7 mL 50% w/v HPCD solution) was no more than 5 min and the “time to go into solution” value ([1]; 400 mg vial + 7 mL 50% w/v HPCD solution, listed as Orbactiv) was 5 min. It also gave a pH ([1]; reconstituted with 20% w/v aqueous HPCD, RT, 0 hr) of 3.85, a pH ([1]; reconstituted with 20% w/v aqueous HPCD, RT, 24 hr) of 4.17 and a pH ([1]; reconstituted with 50% w/v HPCD in water, 0 hr) of 3.94. It also gave an AUC ([2]; both sexes, human, intravenous, 1200 mg dose in man, read-out: plasma exposure (AUC) in man) of roughly 2800 µg·h/mL, an AUC(0-t) ([2]; both sexes, human, mean, ABSSSI subjects, single 1200 mg IV dose over 3 hours (n = 297), read-out: AUC0-24) of 1110 µg·h/mL and an AUC(0-t) ([2]; both sexes, human, mean, ABSSSI subjects, single 1200 mg IV dose over 3 hours (n = 297), read-out: AUC0-72) of 1530 µg·h/mL. It also gave a half-life ([2]; both sexes, human, mean, ABSSSI subjects, single 1200 mg IV dose over 3 hours (n = 297), read-out: T1/2,α (converted)) of 2.29 h, a half-life ([2]; both sexes, human, mean, ABSSSI subjects, single 1200 mg IV dose over 3 hours (n = 297), read-out: T1/2,β (converted)) of 13.4 h and a half-life ([2]; both sexes, human, mean, ABSSSI subjects, single 1200 mg IV dose over 3 hours (n = 297), read-out: T1/2,γ (converted)) of 245 h. For the same compound, the Vd ([2]; both sexes, human, mean, ABSSSI subjects, single 1200 mg IV dose over 3 hours (n = 297), read-out: Vss) was 97.8 L, the AUC(0-inf) ([2]; both sexes, human, per Orbactiv Package Insert (Comparative Example 4): 1200 mg IV, D5W, 3 h infusion) was 2800 µg·h/mL and the Cmax ([2]; both sexes, human, per Orbactiv Package Insert (Comparative Example 4): 1200 mg IV, D5W, 3 h infusion, read-out: Cmax) was 138 µg/mL. For the same compound, the “AUC0-∞” value [2, 3] was 2800 µg·h/mL and the Cmax [2, 3] was 138 µg/mL.
